Laboratory results: patent US10344025B2, “GLS1 inhibitors for treating disease” (Board of Regents, The University of Texas System, priority 2014, dated 2019)

Key:
[1] = biological target: purified recombinant human GAC (GLS1) (Homo sapiens (Human), UniProt O94925); assay: GLS1 Enzymatic Activity Assay (dual-coupled enzymatic assay, resorufin/Amplex UltraRed readout); assay type: biochemical;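 also: glutamate from GAC coupled via glutamate oxidase and peroxidase to resorufin, read as fluorescence (ex 530, em 590 nm) kinetically or at 20 min, four-parameter logistic IC50 fit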
purified recombinant human GAC (GLS1), sequence (O94925 other isoform, or with tags, fused parts or gaps): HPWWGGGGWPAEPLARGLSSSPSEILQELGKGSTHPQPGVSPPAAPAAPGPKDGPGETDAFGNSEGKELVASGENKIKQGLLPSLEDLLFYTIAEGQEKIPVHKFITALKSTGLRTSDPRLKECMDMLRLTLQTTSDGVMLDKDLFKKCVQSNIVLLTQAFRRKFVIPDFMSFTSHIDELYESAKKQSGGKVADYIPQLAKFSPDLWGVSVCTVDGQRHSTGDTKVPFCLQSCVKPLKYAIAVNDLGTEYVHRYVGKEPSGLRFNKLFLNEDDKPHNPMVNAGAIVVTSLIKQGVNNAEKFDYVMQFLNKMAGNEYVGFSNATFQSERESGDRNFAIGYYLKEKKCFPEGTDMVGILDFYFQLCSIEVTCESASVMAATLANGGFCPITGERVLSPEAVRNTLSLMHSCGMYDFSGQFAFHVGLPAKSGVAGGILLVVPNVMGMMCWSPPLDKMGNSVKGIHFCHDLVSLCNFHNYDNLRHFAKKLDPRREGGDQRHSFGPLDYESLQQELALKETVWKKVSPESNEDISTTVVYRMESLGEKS

[2] = test system: A549 cells; assay: Proliferation Assay (A549 viability, Cell Titer Fluor, 72 hours); assay type: cell-based; conditions: Homo sapiens, A549, 72 h
In short: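 Cell Titer Fluor fluorescence after 72 h compound treatment (0.5% DMSO, 37 °C, 5% CO2) of A549 cells plated 24 h earlier at 1000/well. Four-parameter logistic fitting gave IC50.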

| IC50 [1] [nM] | EC50 [2] [nM] | Structure (SMILES) |
| --- | --- | --- |
| < 100 | < 100 | Cc1ccc(CC(=O)Nc2cn(CCCCn3cc(C(=O)NCc4cc(OC(F)(F)F)ccc4F)nn3)nn2)cn1 [Example 335, N-{[2-fluoro-5-(trifluoromethoxy)phenyl]methyl}-1-(4-{4-[2-(6-methylpyridin-3-yl)acetamido]-1H-1,2,3-triazol-1-yl}butyl)-1H-1,2,3-triazole-4-carboxamide] |
| < 100 | 100 to 500 | Cc1ccc(CC(=O)Nc2cn(CCCCn3cc(C(=O)NCc4cc(Cl)ccc4F)nn3)nn2)cn1 [Example 336, N-[(5-chloro-2-fluorophenyl)methyl]-1-(4-{4-[2-(6-methylpyridin-3-yl)acetamido]-1H-1,2,3-triazol-1-yl}butyl)-1H-1,2,3-triazole-4-carboxamide] |
| < 100 | < 100 | O=C(Cc1ccccn1)Nc1cn(CCCCn2cc(C(=O)NCc3cc(OC(F)(F)F)ccc3F)nn2)nn1 [Example 337, N-{[2-fluoro-5-(trifluoromethoxy)phenyl]methyl}-1-(4-{4-[2-(pyridin-2-yl)acetamido]-1H-1,2,3-triazol-1-yl}butyl)-1H-1,2,3-triazole-4-carboxamide] |
| < 100 | 100 to 500 | O=C(Cc1ccccn1)Nc1cn(CCCCn2cc(C(=O)NCc3cc(Cl)ccc3F)nn2)nn1 [Example 338, N-[(5-chloro-2-fluorophenyl)methyl]-1-(4-{4-[2-(pyridin-2-yl)acetamido]-1H-1,2,3-triazol-1-yl}butyl)-1H-1,2,3-triazole-4-carboxamide] |
| < 100 | < 100 | O=C(Cc1cccc(OC(F)(F)F)c1)Nc1cn(CC(F)CCn2cc(C(=O)NCc3cccc(OC(F)(F)F)c3)nn2)nn1 (centres unmarked) [Example 339, 1-[3-fluoro-4-(4-{2-[3-(trifluoromethoxy)phenyl]acetamido}-1H-1,2,3-triazol-1-yl)butyl]-N-{[3-(trifluoromethoxy)phenyl]methyl}-1H-1,2,3-triazole-4-carboxamide] |
| < 100 | < 100 | O=C(Cc1cccc(OC(F)(F)F)c1)Nc1cn(CC(F)CCn2cc(C(=O)NCc3cc(OC(F)(F)F)ccc3F)nn2)nn1 (centres unmarked) [Example 340, 1-[3-fluoro-4-(4-{2-[3-(trifluoromethoxy)phenyl]acetamido}-1H-1,2,3-triazol-1-yl)butyl]-N-{[2-fluoro-5-(trifluoromethoxy)phenyl]methyl}-1H-1,2,3-triazole-4-carboxamide] |
| < 100 | 100 to 500 | O=C(Cc1cccc(OC(F)(F)F)c1)Nc1cn(CC(F)CCn2cc(C(=O)NCc3ncccc3F)nn2)nn1 (centres unmarked) [Example 341, 1-[3-fluoro-4-(4-{2-[3-(trifluoromethoxy)phenyl]acetamido}-1H-1,2,3-triazol-1-yl)butyl]-N-[(3-fluoropyridin-2-yl)methyl]-1H-1,2,3-triazole-4-carboxamide] |
| < 100 | < 100 | Cc1ccc(CC(=O)Nc2cn(CC(F)CCn3cc(C(=O)NCc4cccc(OC(F)(F)F)c4)nn3)nn2)cn1 (centres unmarked) [Example 342, 1-(3-fluoro-4-{4-[2-(6-methylpyridin-3-yl)acetamido]-1H-1,2,3-triazol-1-yl}butyl)-N-{[3-(trifluoromethoxy)phenyl]methyl}-1H-1,2,3-triazole-4-carboxamide] |
| < 100 | < 100 | Cc1ccc(CC(=O)Nc2cn(CC(F)CCn3cc(C(=O)NCc4cc(OC(F)(F)F)ccc4F)nn3)nn2)cn1 (centres unmarked) [Example 343, 1-(3-fluoro-4-{4-[2-(6-methylpyridin-3-yl)acetamido]-1H-1,2,3-triazol-1-yl}butyl)-N-{[2-fluoro-5-(trifluoromethoxy)phenyl]methyl}-1H-1,2,3-triazole-4-carboxamide] |
| 100 to 500 | > 5000 | Cc1ccc(CC(=O)Nc2cn(CC(F)CCn3cc(C(=O)NCc4ccccn4)nn3)nn2)cn1 (centres unmarked) [Example 344, 1-(3-fluoro-4-{4-[2-(6-methylpyridin-3-yl)acetamido]-1H-1,2,3-triazol-1-yl}butyl)-N-(pyridin-2-ylmethyl)-1H-1,2,3-triazole-4-carboxamide] |
| 100 to 500 | > 5000 | Cc1ccc(CC(=O)Nc2cn(CC(F)CCn3cc(C(=O)NCc4ncccc4F)nn3)nn2)cn1 (centres unmarked) [Example 345, 1-(3-fluoro-4-{4-[2-(6-methylpyridin-3-yl)acetamido]-1H-1,2,3-triazol-1-yl}butyl)-N-[(3-fluoropyridin-2-yl)methyl]-1H-1,2,3-triazole-4-carboxamide] |
| < 100 | 500 to 5000 | Cc1ccc(CNC(=O)c2cn(CCC(F)Cn3cc(NC(=O)Cc4ccc(C)nc4)nn3)nn2)cn1 (centres unmarked) [Example 346, 1-(3-fluoro-4-{4-[2-(6-methylpyridin-3-yl)acetamido]-1H-1,2,3-triazol-1-yl}butyl)-N-[(6-methylpyridin-3-yl)methyl]-1H-1,2,3-triazole-4-carboxamide] |
| < 100 | < 100 | O=C(Cc1ccccn1)Nc1cn(CC(F)CCn2cc(C(=O)NCc3cccc(OC(F)(F)F)c3)nn2)nn1 (centres unmarked) [Example 347, 1-(3-fluoro-4-(4-(2-(pyridin-2-yl)acetamido)-1H-1,2,3-triazol-1-yl)butyl)-N-(3-(trifluoromethoxy)benzyl)-1H-1,2,3-triazole-4-carboxamide] |
| 100 to 500 | 100 to 500 | O=C(CN1CC(F)C1)Nc1cn(CCCCn2cc(C(=O)NCc3cc(OC(F)(F)F)ccc3F)nn2)nn1 [Example 350, N-{[2-fluoro-5-(trifluoromethoxy)phenyl]methyl}-1-(4-{4-[2-(3-fluoroazetidin-1-yl)acetamido]-1H-1,2,3-triazol-1-yl}butyl)-1H-1,2,3-triazole-4-carboxamide] |
| 100 to 500 | 500 to 5000 | O=C(CN1CC(F)(F)C1)Nc1cn(CCCCn2cc(C(=O)NCc3cc(Cl)ccc3F)nn2)nn1 [Example 352, N-[(5-chloro-2-fluorophenyl)methyl]-1-(4-{4-[2-(3,3-difluoroazetidin-1-yl)acetamido]-1H-1,2,3-triazol-1-yl}butyl)-1H-1,2,3-triazole-4-carboxamide] |
| < 100 | 100 to 500 | O=C(CN1CC(F)(F)C1)Nc1cn(CCCCn2cc(C(=O)NCc3cc(OC(F)(F)F)ccc3F)nn2)nn1 [Example 353, 1-(4-{4-[2-(3,3-difluoroazetidin-1-yl)acetamido]-1H-1,2,3-triazol-1-yl}butyl)-N-{[2-fluoro-5-(trifluoromethoxy)phenyl]methyl}-1H-1,2,3-triazole-4-carboxamide] |
| 100 to 500 | 100 to 500 | O=C(CN1CCC(F)(F)C1)Nc1cn(CCCCn2cc(C(=O)NCc3cc(Cl)ccc3F)nn2)nn1 [Example 355, N-[(5-chloro-2-fluorophenyl)methyl]-1-(4-{4-[2-(3,3-difluoropyrrolidin-1-yl)acetamido]-1H-1,2,3-triazol-1-yl}butyl)-1H-1,2,3-triazole-4-carboxamide] |
| < 100 | < 100 | O=C(CN1CCC(F)(F)C1)Nc1cn(CCCCn2cc(C(=O)NCc3cc(OC(F)(F)F)ccc3F)nn2)nn1 [Example 356, 1-(4-{4-[2-(3,3-difluoropyrrolidin-1-yl)acetamido]-1H-1,2,3-triazol-1-yl}butyl)-N-{[2-fluoro-5-(trifluoromethoxy)phenyl]methyl}-1H-1,2,3-triazole-4-carboxamide] |
| 100 to 500 | 100 to 500 | O=C(CN1CCC(F)(F)CC1)Nc1cn(CCCCn2cc(C(=O)NCc3cc(Cl)ccc3F)nn2)nn1 [Example 359, N-[(5-chloro-2-fluorophenyl)methyl]-1-(4-{4-[2-(4,4-difluoropiperidin-1-yl)acetamido]-1H-1,2,3-triazol-1-yl}butyl)-1H-1,2,3-triazole-4-carboxamide] |
| < 100 | < 100 | O=C(CN1CCC(F)(F)CC1)Nc1cn(CCCCn2cc(C(=O)NCc3cc(OC(F)(F)F)ccc3F)nn2)nn1 [Example 360, 1-(4-{4-[2-(4,4-difluoropiperidin-1-yl)acetamido]-1H-1,2,3-triazol-1-yl}butyl)-N-{[2-fluoro-5-(trifluoromethoxy)phenyl]methyl}-1H-1,2,3-triazole-4-carboxamide] |
| < 100 | < 100 | O=C(Cc1ccccn1)Nc1cn(CC(F)CCn2cc(C(=O)NCc3cc(OC(F)(F)F)ccc3F)nn2)nn1 (centres unmarked) [Example 363, 1-(3-fluoro-4-{4-[2-(pyridin-2-yl)acetamido]-1H-1,2,3-triazol-1-yl}butyl)-N-{[2-fluoro-5-(trifluoromethoxy)phenyl]methyl}-1H-1,2,3-triazole-4-carboxamide] |
| 100 to 500 | 500 to 5000 | Cc1ccc(CNC(=O)c2cn(CCC(F)Cn3cc(NC(=O)Cc4ccccn4)nn3)nn2)cn1 (centres unmarked) [Example 364, 1-(3-fluoro-4-{4-[2-(pyridin-2-yl)acetamido]-1H-1,2,3-triazol-1-yl}butyl)-N-[(6-methylpyridin-3-yl)methyl]-1H-1,2,3-triazole-4-carboxamide] |
| 100 to 500 | 500 to 5000 | O=C(Cc1ccc(Cl)cc1F)Nc1cn(CCCCn2cc(C(=O)NCc3ccccn3)nn2)nn1 [Example 366, 1-(4-{4-[2-(4-chloro-2-fluorophenyl)acetamido]-1H-1,2,3-triazol-1-yl}butyl)-N-(pyridin-2-ylmethyl)-1H-1,2,3-triazole-4-carboxamide] |
| < 100 | 100 to 500 | O=C(Cc1ccc(OC(F)(F)F)cc1F)Nc1cn(CCCCn2cc(C(=O)NCc3ccccn3)nn2)nn1 [Example 367, 1-[4-(4-{2-[2-fluoro-4-(trifluoromethoxy)phenyl]acetamido}-1H-1,2,3-triazol-1-yl)butyl]-N-(pyridin-2-ylmethyl)-1H-1,2,3-triazole-4-carboxamide] |
| < 100 | < 100 | Cc1ccc(CNC(=O)c2cn(CC(F)CCn3cc(C(=O)NCc4cc(OC(F)(F)F)ccc4F)nn3)nn2)cn1 (centres unmarked) [Example 368, 1-{2-fluoro-4-[4-({[2-fluoro-5-(trifluoromethoxy)phenyl]methyl}carbamoyl)-1H-1,2,3-triazol-1-yl]butyl}-N-[(6-methylpyridin-3-yl)methyl]-1H-1,2,3-triazole-4-carboxamide] |
